Experiments:
Assay type in all cases: in vivo, white mice of Swiss strain
[1] = tested on: doxorubicin-induced skin ulcers; assay: doxorubicin-induced skin ulcers in white mice: ulcer area and macroscopic state
Source text: (§1) Research indicators during burn treatment including: (A) macromorphological index, (B) quantification of hydroxyproline concentration in damaged tissue, and (C) micromorphic index; wherein: • (A) macromorphological index: • Injury status at the burn: swelling, heat, redness, edema observed by eye and recorded by digital camera; • Measure the burn area at 7, 14, and 21 days after causing the burn.
Evaluation of the scar healing effect of the composition 100 and composition 200 in experiments. The model was based on previous studies of doxorubicin-induced skin ulcers in white mice of Swiss strain, both breeds, healthy, weight 30-35 g. White mice of both breeds of both breeds were randomly divided into 5 lots, each batch of 10 animals as follows: • Lot 1: Intradermal injection of physiological saline, no applying DMSO/composition 100/composition 200; • Lot 2: Intradermal injection of doxorubicin 1 mg/0.5 ml, to heal the ulcer naturally; • Lot 3: Intradermal injection of doxorubicin 1 mg/0.5 ml, for ulcer progression for 7 days. Then, drop 0.1 ml of DMSO on the ulcerated area, 2 times a day, use within 21 days; • Lot 4: Intradermal injection of doxorubicin 1 mg/0.5 ml, for ulcer progression for 7 days. Then, apply the composition 100 with dose of 0.1 ml/ulcer/time, 2 times/day, used for 21 days; and • Lot 5: Intradermal injection of doxorubicin 1 mg/0.5 ml, for ulcer progression for 7 days. Then, apply the composition 200 with dose of 0.1 ml/ulcer/time, with a frequency of twice daily, and used for 21 days.
(§2) Research indicators during scar healing including: (A) macromorphological index, (B) quantification of hydroxyproline concentration in damaged tissue, and (C) micromorphic index; all was samed as the burn treatment research experimental.

[2] = tested on: doxorubicin-induced skin ulcers; assay: hydroxyproline concentration in skin of mice with doxorubicin-induced ulcers; conditions: doxorubicin-induced skin ulcer model; at the end of the study (21 days of application)
Source text: as §1
(§3) Evaluation of the scar healing effect of the composition 100 and composition 200 in experiments. The model was based on previous studies of doxorubicin-induced skin ulcers in white mice of Swiss strain, both breeds, healthy, weight 30-35 g. White mice of both breeds of both breeds were randomly divided into 5 lots, each batch of 10 animals as follows: • Lot 1: Intradermal injection of physiological saline, no applying DMSO/composition 100/composition 200; • Lot 2: Intradermal injection of doxorubicin 1 mg/0.5 ml, to heal the ulcer naturally; • Lot 3: Intradermal injection of doxorubicin 1 mg/0.5 ml, for ulcer progression for 7 days. […]
as §2

[3] = tested on: doxorubicin-induced skin ulcers; assay: micromorphic index of the skin at the ulcer; conditions: mice
Source text: as §1, §3, §2

## C[S+](C)[O-] [DMSO, dimethyl sulfoxide]
[1]; 0.1 ml on ulcer 2 times a day, after 7 days
  Area of skin ulcers After 7 days (x ± SD): 50.13 ± 12.55 mm^2
[1]; 0.1 ml on ulcer 2 times a day, after 14 days, median
  Area of skin ulcers After 14 days Median (quartile): 7.13 mm^2
[1]; 0.1 ml on ulcer 2 times a day, after 21 days, median
  Area of skin ulcers After 21 days Median (quartile): 0 mm^2
[1]; at the end of the study
  macroscopic state of the ulcerated skin area: significantly reduced and almost completely healed skin ulcers
[1]; before applied (baseline)
  Area of skin ulcers Before applied (x ± SD): 75.71 ± 14.02 mm^2
[2]
  Hydroxyproline concentrations in mouse skin (x ± SD): 15.04 ± 2.35 mg/g skin
[3]
  micromorphic images of the skin at the ulcer: the skin has regenerated to form the epidermis, no formation of skin-dependent glands, less blood vessels
